# Values of other authors, collected in patent US11395819B1, “Antiviral and virucidal lung nebulizer compositions and related treatment methods” (priority 2021, dated 2022).
# Counter-ions that a name gives are not always drawn.
# Key:
# [1] = tested on: divergent influenza A strains and influenza B strain
# [2] = given by inhalation
# [3] = tested on: avian H7N9 influenza virus; settings: mice
compound,measurement,setting,value
"CN(C)CCC(c1ccc(Cl)cc1)c1ccccn1 (stereo not drawn) [Chlorpheniramine, chlorpheniramine maleate]",inhibitory activity against influenza,[1],potent inhibitory activity
same,bronchodilation,[2],significant bronchodilation
same,protection from fatal challenge,[3],protects mice from fatal challenge
